In ChEMBL document CHEMBL1201862, “PubChem BioAssay data set” (2004):
The source made the active and inactive calls.

Legend:
[1] = target: Paired box protein Pax-8 (Homo sapiens, UniProt Q06710); assay: PAX8 transcriptional activity inhibition in RMG-I – RMG-I cells, luciferase, cherry-pick, dose response (AID 687027); assay type: functional, cell-based;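 also: luciferase reporter driven by Pax8 target thyroperoxidase promoter measured by SteadyGlo luminescence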
[2] = A549 cell cytotoxicity, dose response, cytotoxicity control, plate reader, cherry-pick, antagonist series (AID 743412); assay type: functional, cell-based
[3] = toxicity toward HepG2 liver cells – cell-based, plate reader, cherry-pick, antagonist series, cytotoxicity control, dose response (AID 743416); assay type: functional
[4] = blockers of bursicon-stimulated LGR2 cAMP reporter – cell-based, HEK293, CRE-luciferase reporter, cherry pick, set 2, dose response (AID 743343); assay type: functional;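 also: transfected cells were stimulated with diluted bursicon conditioned medium after compound addition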
[5] = general cell-killing toxicity readout – plate reader, dry powder samples, cytotoxicity control for PAX8 inhibitor project, dose response (AID 743021); assay type: functional, cell-based
[6] = blockade of melanocortin 4 receptor signaling – cell-based, plate reader, cherry pick, counter-screen for LGR2 antagonist project, dose response (AID 743444); assay type: functional;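 also: transfected HEK 293 cells stimulated with alpha-MSH peptide; potency of inhibitors of the alpha-MSH evoked signal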
[7] = viability loss in HEK293 cells – cell-based, plate reader, cherry-picked samples, cytotoxicity control, dose response (AID 743446); assay type: functional
[8] = cytotoxicity in MITF-independent A375 cells – cell-based, CellTiter-Glo luminescence, dry powder, set 4, counter-screen for MITF inhibitor project, dose response (AID 624364); assay type: functional; settings: A-375;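 also: A375 melanoma cells are MITF independent so this is a counter screen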
[9] = viability loss in MITF-independent A375 cells – cell-based, CellTiter-Glo luminescence, dry powder, set 2, counter-screen for MITF inhibitor project, dose response (AID 624489); assay type: functional; settings: A-375;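 also: actives are compounds lowering A375 viability meaning general cytotoxicity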
[10] = target: C-X-C chemokine receptor type 4 (Homo sapiens, UniProt P61073); assay: SAR analysis of small molecule antagonists of the CXCR6 receptor using a CXCR4 receptor luminescent beta-arrestin counterscreen.; assay type: functional
[11] = target: T1, C-C chemokine receptor type 6 (Homo sapiens, UniProt P51684); assay: SAR analysis of small molecule antagonists of the CXCR6 receptor using a CCR6 receptor luminescent beta-arrestin counterscreen.; assay type: functional
T1 sequence (P51684 whole entry): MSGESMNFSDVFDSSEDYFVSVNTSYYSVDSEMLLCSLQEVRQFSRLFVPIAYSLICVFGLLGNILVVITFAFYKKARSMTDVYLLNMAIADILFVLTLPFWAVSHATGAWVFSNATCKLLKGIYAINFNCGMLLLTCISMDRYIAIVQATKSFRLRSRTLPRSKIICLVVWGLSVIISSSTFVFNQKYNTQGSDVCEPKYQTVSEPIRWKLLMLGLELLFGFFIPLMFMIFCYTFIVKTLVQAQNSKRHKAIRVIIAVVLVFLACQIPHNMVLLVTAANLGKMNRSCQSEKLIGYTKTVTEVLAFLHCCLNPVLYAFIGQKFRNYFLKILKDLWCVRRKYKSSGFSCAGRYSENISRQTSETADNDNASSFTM

[12] = cervical cancer cell viability loss – HeLa, 24 h, plate reader, powder samples, set 3, cytotoxicity control, dose response (AID 651864); assay type: functional, cell-based
[13] = HeLa cell viability loss – 24 h, dry powder, set 2, cytotoxicity control, dose response (AID 651774); assay type: functional, cell-based
[14] = target: fMet-Leu-Phe receptor (Homo sapiens, UniProt P21462); assay: formyl peptide receptor binders – dose response (AID 519); assay type: functional
[15] = target: Cytochrome P450 2C9 (Homo sapiens, UniProt P11712)
Sequence of Cytochrome P450 2C9 (P11712 whole entry): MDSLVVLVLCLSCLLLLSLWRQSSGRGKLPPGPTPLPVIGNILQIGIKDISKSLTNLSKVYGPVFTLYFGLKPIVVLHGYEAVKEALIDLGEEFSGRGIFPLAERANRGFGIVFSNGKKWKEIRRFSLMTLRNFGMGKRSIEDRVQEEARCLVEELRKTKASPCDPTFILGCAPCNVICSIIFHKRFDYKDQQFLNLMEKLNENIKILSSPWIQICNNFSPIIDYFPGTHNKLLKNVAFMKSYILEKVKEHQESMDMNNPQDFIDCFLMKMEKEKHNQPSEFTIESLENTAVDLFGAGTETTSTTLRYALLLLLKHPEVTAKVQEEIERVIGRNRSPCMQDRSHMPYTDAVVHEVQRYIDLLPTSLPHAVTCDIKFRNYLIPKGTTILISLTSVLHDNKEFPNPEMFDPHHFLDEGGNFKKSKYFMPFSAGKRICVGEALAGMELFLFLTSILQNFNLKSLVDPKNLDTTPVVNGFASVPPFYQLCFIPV

[16] = target: Kallikrein-7 (Homo sapiens, UniProt P49862); assay: Fluorescence Intensity-based biochemical primary high throughput dose response assay to identify activators of kallikrein-7 (K7) zymogen.
Sequence of Kallikrein-7 (P49862 whole entry): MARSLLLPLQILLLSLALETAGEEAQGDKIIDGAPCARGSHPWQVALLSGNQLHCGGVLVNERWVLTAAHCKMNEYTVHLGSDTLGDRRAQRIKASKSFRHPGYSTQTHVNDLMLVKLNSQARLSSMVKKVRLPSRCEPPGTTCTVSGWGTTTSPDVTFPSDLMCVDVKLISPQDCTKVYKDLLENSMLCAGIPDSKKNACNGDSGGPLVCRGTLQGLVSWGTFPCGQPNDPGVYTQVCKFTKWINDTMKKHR

[17] = optical artefact potency, substrate without enzyme – biochemical, fluorescence intensity, triplicate, artefact control for kallikrein-7 zymogen activator project, dose response (AID 720493)
[18] = target: Beta-lactamase (Salmonella choleraesuis (strain SC-B67), UniProt Q5J463); assay: Epi-absorbance-based counterscreen for selective VIM-2 inhibitors: dose response biochemical high throughput screening assay to identify inhibitors of TEM-1 serine-beta-lactamase.
Sequence of Beta-lactamase (Salmonella choleraesuis (strain SC-B67), UniProt Q5J463) (Q5J463 whole entry): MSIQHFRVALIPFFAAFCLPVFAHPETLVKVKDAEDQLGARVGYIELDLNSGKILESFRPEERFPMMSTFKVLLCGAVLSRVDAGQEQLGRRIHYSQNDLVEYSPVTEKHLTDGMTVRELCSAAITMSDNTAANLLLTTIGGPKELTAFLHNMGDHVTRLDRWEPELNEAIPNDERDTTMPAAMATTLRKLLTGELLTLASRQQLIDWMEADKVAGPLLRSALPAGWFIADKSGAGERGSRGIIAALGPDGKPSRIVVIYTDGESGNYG

[19] = target: T2, Beta-lactamase (Pseudomonas aeruginosa, UniProt Q79MP6); assay: inhibition of IMP-1 beta-lactamase activity – biochemical, epi-absorbance, selectivity assay for VIM-2 inhibitor project, dose response (AID 1920)
T2 sequence (Q79MP6 whole entry): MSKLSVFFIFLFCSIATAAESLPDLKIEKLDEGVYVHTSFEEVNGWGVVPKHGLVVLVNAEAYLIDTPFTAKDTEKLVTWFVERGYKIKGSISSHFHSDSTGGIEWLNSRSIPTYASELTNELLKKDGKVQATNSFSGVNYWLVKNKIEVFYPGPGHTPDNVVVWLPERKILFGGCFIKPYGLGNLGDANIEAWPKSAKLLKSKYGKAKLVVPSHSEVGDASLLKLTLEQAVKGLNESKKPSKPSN

[20] = target: T2, Beta-lactamase; assay: […] counterscreen for selective VIM-2 inhibitors: dose response biochemical high throughput screening assay to identify inhibitors of IMP-1 metallo-beta-lactamase.
[21] = target: DNA dC->dU-editing enzyme APOBEC-3A (Homo sapiens, UniProt P31941); assay: A3A deaminase inhibition for selectivity – biochemical, dose response (AID 504722); assay type: functional
Sequence of DNA dC->dU-editing enzyme APOBEC-3A (P31941 whole entry): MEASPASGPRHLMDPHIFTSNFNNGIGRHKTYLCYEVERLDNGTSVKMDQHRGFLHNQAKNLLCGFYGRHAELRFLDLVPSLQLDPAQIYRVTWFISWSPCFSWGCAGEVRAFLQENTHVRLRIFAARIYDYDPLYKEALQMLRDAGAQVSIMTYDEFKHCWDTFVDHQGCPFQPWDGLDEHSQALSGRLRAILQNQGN

[22] = target: DNA dC->dU-editing enzyme APOBEC-3G (Homo sapiens, UniProt Q9HC16); assay: Dose Response confirmation of small molecule APOBEC3G DNA Deaminase Inhibitors via a fluorescence-based single-stranded DNA deaminase assay. [Related pubchem assays (depositor defined):AID493012, AID493028]; assay type: functional
Sequence of DNA dC->dU-editing enzyme APOBEC-3G (Q9HC16 whole entry): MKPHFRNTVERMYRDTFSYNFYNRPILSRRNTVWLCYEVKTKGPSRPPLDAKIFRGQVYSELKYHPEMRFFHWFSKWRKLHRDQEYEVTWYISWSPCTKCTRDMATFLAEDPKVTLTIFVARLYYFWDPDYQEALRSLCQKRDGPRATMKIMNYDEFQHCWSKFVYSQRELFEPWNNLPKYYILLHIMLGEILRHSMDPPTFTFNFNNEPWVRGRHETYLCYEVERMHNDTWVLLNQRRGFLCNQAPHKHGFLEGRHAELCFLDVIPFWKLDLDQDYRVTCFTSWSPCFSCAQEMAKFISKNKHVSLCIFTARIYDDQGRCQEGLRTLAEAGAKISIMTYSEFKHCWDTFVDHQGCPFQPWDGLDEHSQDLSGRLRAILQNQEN

[23] = T. cruzi growth inhibition in host cells, dose response, cell-based, plate reader, dry powder, set 2 (AID 652275); assay type: functional
[24] = target: ATP-dependent translocase ABCB1 (Homo sapiens, UniProt P08183); assay: inhibition of P-gp mediated JC-1 efflux – Jurkat-DNR cells, flow cytometry, dose response (AID 1689); assay type: functional
Sequence of ATP-dependent translocase ABCB1 (P08183 whole entry): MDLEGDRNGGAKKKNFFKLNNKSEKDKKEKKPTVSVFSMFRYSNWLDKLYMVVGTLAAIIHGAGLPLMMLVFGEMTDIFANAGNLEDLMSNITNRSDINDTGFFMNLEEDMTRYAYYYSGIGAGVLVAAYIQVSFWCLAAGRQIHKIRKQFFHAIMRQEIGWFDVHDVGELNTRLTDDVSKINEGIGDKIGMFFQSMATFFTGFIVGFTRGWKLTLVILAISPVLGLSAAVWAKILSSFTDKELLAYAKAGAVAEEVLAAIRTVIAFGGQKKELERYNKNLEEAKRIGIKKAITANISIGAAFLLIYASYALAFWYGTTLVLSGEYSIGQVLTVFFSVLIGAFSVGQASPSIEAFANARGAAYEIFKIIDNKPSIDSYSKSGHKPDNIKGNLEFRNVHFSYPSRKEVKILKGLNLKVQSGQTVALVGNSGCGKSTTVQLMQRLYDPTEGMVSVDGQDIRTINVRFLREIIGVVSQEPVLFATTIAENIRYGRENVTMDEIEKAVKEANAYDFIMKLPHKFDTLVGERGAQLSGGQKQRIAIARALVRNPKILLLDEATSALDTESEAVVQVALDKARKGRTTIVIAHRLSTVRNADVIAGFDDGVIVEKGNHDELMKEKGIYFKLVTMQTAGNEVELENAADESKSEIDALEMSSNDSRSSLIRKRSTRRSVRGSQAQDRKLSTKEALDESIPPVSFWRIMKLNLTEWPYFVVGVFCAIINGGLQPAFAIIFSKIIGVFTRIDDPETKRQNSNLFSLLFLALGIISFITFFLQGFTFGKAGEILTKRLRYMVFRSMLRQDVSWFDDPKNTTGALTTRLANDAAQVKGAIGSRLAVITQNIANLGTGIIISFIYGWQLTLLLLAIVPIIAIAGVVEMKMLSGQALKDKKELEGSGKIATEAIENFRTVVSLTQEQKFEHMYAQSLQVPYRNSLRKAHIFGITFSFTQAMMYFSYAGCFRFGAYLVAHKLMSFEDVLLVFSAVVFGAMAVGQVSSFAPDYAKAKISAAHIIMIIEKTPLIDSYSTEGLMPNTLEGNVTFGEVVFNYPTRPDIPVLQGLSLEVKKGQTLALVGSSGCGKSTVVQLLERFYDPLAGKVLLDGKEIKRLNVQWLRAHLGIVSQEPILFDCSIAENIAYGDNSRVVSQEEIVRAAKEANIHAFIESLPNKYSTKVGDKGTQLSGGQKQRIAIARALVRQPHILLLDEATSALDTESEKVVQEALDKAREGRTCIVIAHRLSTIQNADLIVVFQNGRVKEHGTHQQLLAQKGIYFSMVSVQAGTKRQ

[25] = target: Broad substrate specificity ATP-binding cassette transporter ABCG2 (Homo sapiens, UniProt Q9UNQ0); assay: blockers of JC-1 export by ABCG2 – Ig-MXP3 cells, flow cytometry, dose response (AID 1690); assay type: functional
Sequence of Broad substrate specificity ATP-binding cassette transporter ABCG2 (Q9UNQ0 whole entry, the tested form may be a part): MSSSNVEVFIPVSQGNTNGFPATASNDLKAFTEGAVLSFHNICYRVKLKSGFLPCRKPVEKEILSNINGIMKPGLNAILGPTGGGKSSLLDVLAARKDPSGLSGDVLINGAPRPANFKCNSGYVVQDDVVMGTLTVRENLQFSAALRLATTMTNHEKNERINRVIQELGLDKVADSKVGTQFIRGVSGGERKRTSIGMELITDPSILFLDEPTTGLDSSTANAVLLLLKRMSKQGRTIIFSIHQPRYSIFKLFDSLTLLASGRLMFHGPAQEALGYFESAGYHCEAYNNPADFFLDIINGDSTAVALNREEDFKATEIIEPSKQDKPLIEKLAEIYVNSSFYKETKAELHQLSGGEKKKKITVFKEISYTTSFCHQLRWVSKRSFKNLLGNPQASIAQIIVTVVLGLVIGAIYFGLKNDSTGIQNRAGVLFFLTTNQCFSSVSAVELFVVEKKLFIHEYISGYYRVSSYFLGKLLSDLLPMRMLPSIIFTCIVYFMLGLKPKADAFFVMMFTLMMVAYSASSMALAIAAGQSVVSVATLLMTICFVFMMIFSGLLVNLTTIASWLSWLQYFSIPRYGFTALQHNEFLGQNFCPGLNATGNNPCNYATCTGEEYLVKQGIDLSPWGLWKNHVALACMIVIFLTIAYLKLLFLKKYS

[26] = target: Oxysterols receptor LXR-beta (Homo sapiens, UniProt P55055); assay type: functional, cell-based;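 also: agonist activity at LXR measured by a cell-based luminescence readout across a dose range, run as a counterscreen for daf-12 agonists; HEK293 cells with Gal4-LXR fusion and GAL4-driven luciferase reporter; potency for activation of Gal4-LXR reporter so compounds are agonists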
Sequence of Oxysterols receptor LXR-beta (P55055 whole entry, the tested form may be a part): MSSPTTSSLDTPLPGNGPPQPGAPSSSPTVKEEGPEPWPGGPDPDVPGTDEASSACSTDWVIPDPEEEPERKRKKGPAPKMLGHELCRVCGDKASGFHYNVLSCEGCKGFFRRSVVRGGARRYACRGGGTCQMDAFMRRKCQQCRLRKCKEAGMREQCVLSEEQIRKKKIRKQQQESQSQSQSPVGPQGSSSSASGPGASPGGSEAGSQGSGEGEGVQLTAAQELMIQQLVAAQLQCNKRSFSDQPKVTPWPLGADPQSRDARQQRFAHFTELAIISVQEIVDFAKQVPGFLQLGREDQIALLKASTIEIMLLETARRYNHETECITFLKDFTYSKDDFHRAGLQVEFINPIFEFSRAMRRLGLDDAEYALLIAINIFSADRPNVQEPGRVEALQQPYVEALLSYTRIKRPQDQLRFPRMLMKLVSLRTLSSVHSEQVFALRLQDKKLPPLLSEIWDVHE

Sequence of Paired box protein Pax-8 (Q06710 whole entry): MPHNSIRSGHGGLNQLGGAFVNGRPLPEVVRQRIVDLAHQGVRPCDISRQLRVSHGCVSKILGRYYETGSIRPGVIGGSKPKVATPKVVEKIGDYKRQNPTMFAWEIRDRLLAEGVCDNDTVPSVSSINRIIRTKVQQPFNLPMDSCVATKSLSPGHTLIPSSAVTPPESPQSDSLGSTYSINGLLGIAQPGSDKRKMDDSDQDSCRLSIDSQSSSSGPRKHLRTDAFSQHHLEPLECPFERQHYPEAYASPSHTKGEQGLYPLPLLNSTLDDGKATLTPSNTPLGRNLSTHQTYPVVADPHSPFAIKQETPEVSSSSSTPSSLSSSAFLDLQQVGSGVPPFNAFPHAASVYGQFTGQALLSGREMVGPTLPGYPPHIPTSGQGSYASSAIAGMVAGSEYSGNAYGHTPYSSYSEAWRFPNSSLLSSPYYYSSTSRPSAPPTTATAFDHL

Nc1[nH]cnc2c(C3OC(CO)C(O)C3O)cnc1-2 (stereo unspecified)
AC50 [1]: < 0.26 µM (active)
AC50 [2]: < 0.05 µM (active)
AC50 [3]: 0.422 µM (active)
AC50 [4]: 0.407 µM (active)
AC50 [5]: 19.5 µM (active)
AC50 [6]: 0.539 µM (active)
AC50 [7]: 0.832 µM (active)

C=CCNC1=C(NS(=O)(=O)c2ccc(Br)cc2)C(=O)c2ccccc2C1=O
AC50 [8]: > 70 µM (inactive)
AC50 [9]: > 70 µM (inactive)

COc1ccc(CN2C3CCCC2CC(NC(=O)c2cc(OC)c(OC)c(OC)c2)C3)cc1 (stereo unspecified)
IC50 [10]: 57.5 µM (inactive)
IC50 [11]: > 79 µM (inactive)

CCn1nnnc1NCc1ccc(C(C)C)cc1
AC50 [12]: 144 µM (active)
AC50 [13]: > 70 µM (inactive)

Cc1ccc(C2C(C(=O)c3ccc(Cl)cc3)=C(O)C(=O)N2CC2CCCO2)o1 (stereo unspecified)
Ki [14]: 11.6 µM (active)
AC50 [15]: 22.4 µM (inconclusive)

COc1ccc(-c2coc3cc(O)c(OC)cc3c2=O)cc1 [CASTANIN]
EC50 [16]: 9 µM (active)
EC50 [17]: > 7.73 µM (active)

C=C(C)Cn1c(-c2cccs2)n[nH]c1=S
IC50 [18]: > 59.6 µM (inactive)
IC50 [19]: > 59.6 µM (inactive)
IC50 [20]: > 59.6 µM (inactive)
IC50 [21]: > 100 µM (inactive)
IC50 [22]: 7.53 µM (active)

O=C(CN1CCOCC1)N1CCCCN2[C@@H](CO)[C@H](c3ccc(-c4ccccc4)cc3)[C@@H]2C1
AC50 [23]: 2.39 µM (active)

CN(C)c1ccc(P(=O)(Nc2cccc(C(F)(F)F)c2)N2CCOCC2)c(NC(=O)c2cccs2)c1 (stereo unspecified)
EC50 [24]: 0.286 µM (active)
EC50 [25]: 1.21 µM (inactive)

Cc1ccsc1/C=N/NC(=O)c1sccc1C
EC50 [26]: > 67.5 µM (inactive)
